Reference: article PMC9820444, “Design and Synthesis of Acridine-Triazole and Acridine-Thiadiazole Derivatives and Their Inhibitory Effect against Cancer Cells” (International Journal of Molecular Sciences, 2022)
Read-outs that look alike come from different tables or passages of the source. Marks after values point to notes of the source that are not given here.

Assays:
[1] = system: human foreskin fibroblasts (HFF); assay: MTT antiproliferative assay, HFF; type: cell-based; conditions: read-out: Effect against cell viability (IC50), HFF
Procedure: (§1) All newly synthesized acridinyl derivatives (4–6) were screened for their anticancer activities in comparison to the reference compounds, 5-FU and cis-platinum. Compounds 4–6 were tested for their in vitro antitumor activities against HFF, MGC-803, BEL-7404, NCI-H460, and T24 tumor cell lines, and human normal liver cells (LO2), and the results are shown in Table 1. Most of the compounds had strong selective potency against MGC-803 and T24 cancer cells. […] In the T24 cell line assay, many compounds, especially the series of compound 4, had significant activity against T24. This implies that there is a significant increase in potency after the introduction of the aroyl thiourea group. […] To our delight, most 1,2,4-triazolethiones (5) and 1,2,4-thiadiazoles (6) have low toxicity to LO2 compared with the positive control.
(§2) Test samples, including compounds 4–6 and commercial classical anticancer drugs (5-FU and cis-platinum), were screened for their anti-cancer activity against HFF human foreskin fibroblast cells, MGC-803 human gastric cancer cells, BEL-7404 human hepatocellular carcinoma cells, NCI-H460 human large cell carcinoma cells, and T24 human bladder carcinoma cells using the 3-(4,5-dimethylthiazol-2-yl)-2,5-diphenyltetrazoliumbromide (MTT) assay method cited in the literature. The initial concentration of all the test samples was 100 μg/mL, which was serially diluted in complete medium with ten-fold dilutions to give six concentrations per compound. Their cytotoxicity was determined in 96-well flat bottomed microtiter plates. All the test samples were tested in triplicate. The results were expressed as the drug concentration that inhibited cell growth by 50% as compared to the controls (IC50). The IC50 values were calculated from regression lines obtained from the percent cell growth inhibition plotted as a function of the logarithm of the dose.

[2] = system: human gastric cancer cells-803 (MGC-803); assay: MTT antiproliferative assay, MGC-803; type: cell-based; conditions: read-out: Effect against cell viability (IC50), MGC-803
Procedure: as §1, §2

[3] = system: hepatocellular carcinoma bel-7404 (BEL-7404); assay: MTT antiproliferative assay, BEL-7404; type: cell-based, human; conditions: read-out: Effect against cell viability (IC50), BEL-7404
Procedure: as §1, §2

[4] = system: large cell lung cancer cells (NCI-H460); assay: MTT antiproliferative assay, NCI-H460; type: cell-based, human; conditions: read-out: Effect against cell viability (IC50), NCI-H460
Procedure: as §1, §2

[5] = system: bladder cancer cells (T24); assay: MTT antiproliferative assay, T24; type: cell-based, human; conditions: read-out: Effect against cell viability (IC50), T24
Procedure: as §1, §2

[6] = system: human normal liver cells (LO2); assay: Cytotoxicity against normal liver cells LO2; type: cell-based; conditions: MTT, read-out: Effect against cell viability (IC50), LO2
Procedure: as §1, §2

zebrafish embryos = system: zebrafish embryos; set-up: mortality rate of zebrafish embryos: dose or concentration left out as unconfirmed; conditions: for MAR (malformation rate) / MOR (mortality rate): zebrafish embryos 72 hpf
Procedure: In this experiment, 2% DMSO was used to dissolve the target products, and the abnormal rate (MAR) and mortality rate (MOR) of zebrafish embryos (72 hpf) were used for statistics.
The zebrafish embryos were collected at 6 hpf and randomly divided into naive control (embryos maintained in distilled water), vehicle control (embryos treated with 2% DMSO), and drug groups. Stock solutions of all drugs were prepared in 2% DMSO as a solubilizing agent and diluted to three concentrations (0.5 mg/mL, 1 mg/mL, and 2 mg/mL). Each group had 20 embryos per test concentration. […] Each compound was evaluated in three independent biological experiments.

[7] = system: subintestinal veins (SIVs) in zebrafish embryos; assay: Zebrafish angiogenesis assay (subintestinal veins, NBT/BCIP staining); type: in vivo; conditions: 1 mg/mL
Text: Currently, the zebrafish has emerged as a valuable model organism to substitute traditional models for studying angiogenesis inhibitors. The genes of zebrafish show 70–80% similarity to humans, and the vascular structure of zebrafish has high similarity to that of other vertebrates. Therefore, the subintestinal veins (SIVs) in the zebrafish embryos are used as evaluation indicators for anti-angiogenesis inhibitors. In this study, NBT/BCIP vascular staining was used to observe the angiogenesis effect of representative drugs (4h, 4f, 5d, 5h, 6g and 6h) in a zebrafish model. […] Compared with the blank control group, the area of the meshed pattern vessel and the number of vascular branches in the network decreased after the administration of compounds 4h, 5d, 5h and 6h.
The 24 hpf zebrafish embryos were dechorionated with a 1 gL^−1 pronase treatment and maintained in distilled water in 12-well cell culture plates (each well contained 20 embryos). A negative control group containing zebrafish embryos in distilled water and a vehicle treatment group that was treated with 2% dimethyl sulfoxide (DMSO) were prepared. The anti-angiogenic compounds were diluted to 1 mg/mL. After incubating at 28 °C for […], the embryos were immersed in 4% paraformaldehyde and dehydrated by gradient ethanol. Subsequently, the embryos were balanced in NTMT buffer (5 M NaCl + 1 M Tris [pH 9.0–9.5] + 1 M MgCl2+ 10% Tween), and nitrotetrazolium blue chloride (NBT) and p-toluidine salt (BCIP) staining were performed. To evaluate the effect of compounds on the angiogenesis of zebrafish embryos, the growth of embryonic sub-intestinal veins (SIVs) at 72 hpf was observed using an IX71 Olympus microscope (Hamburger, Germany). The length of the SIVs was calculated using the image J 1.8.0 software (Bethesda, MD, USA).

Compound	IC50 ([1]; Homo sapiens, Fibroblast) [µM]	IC50 ([2]; Homo sapiens, MGC-803, MTT) [µM]	IC50 ([3]; Homo sapiens) [µM]	IC50 ([4]; Homo sapiens) [µM]	IC50 ([5]; Homo sapiens) [µM]	IC50 ([6]; Homo sapiens) [µM]	melting point [°C]	also measured
Cc1ccc2nc3ccccc3c(-n3c(-c4ccncc4)n[nH]c3=S)c2c1 [5f, 4-(2-methylacridin-9-yl)-5-(pyridin-4-yl)-2,4-dihydro-3H-1,2,4-triazole-3-thione]	69.2 ± 2.16	15.2 ± 1.08	44.2 ± 2.68	58.8 ± 3.22	15.7 ± 1.58	46.8 ± 2.93	264 to 268	
COC1=CC2C(=Nc3nnc(-c4ccc(OC)cc4)s3)c3ccccc3NC2C=C1 (stereo not drawn) [6c, 7-methoxy-N-(5-(4-methoxyphenyl)-1,3,4-thiadiazol-2-yl)-10,10a-dihydroacridin-9(8aH)-imine]	65.2 ± 3.92	12.1 ± 1.22	25.1 ± 2.15	30.2 ± 2.45	24.3 ± 2.34	> 100	230 to 232	
CC1=CC2C(=Nc3nnc(-c4ccncc4)s3)c3ccccc3NC2C=C1 (stereo not drawn) [6f, 7-methyl-N-(5-(pyridin-4-yl)-1,3,4-thiadiazol-2-yl)-10,10a-dihydroacridin-9(8aH)-imine]	45.4 ± 2.18	12.3 ± 1.96	40.3 ± 2.19	55.7 ± 3.28	13.9 ± 1.37	37.2 ± 2.12	276 to 278	
COC1=CC2C(=Nc3nnc(-c4ccccc4)s3)c3ccccc3NC2C=C1 (stereo not drawn) [6b, 7-methoxy-N-(5-phenyl-1,3,4-thiadiazol-2-yl)-10,10a-dihydroacridin-9(8aH)-imine]	79.3 ± 2.48	23.3 ± 1.97	32.3 ± 2.82	47.5 ± 3.51	49.4 ± 4.59	> 100	263 to 265	
COc1ccc2[nH]c3ccccc3c(=NC(=S)NNC(=O)c3ccncc3)c2c1 [4a, 1-2′-methoxyl acridinyl-3-4′-pyridinamide thiourea]								IC50 [1]: 75.8 ± 3.52 µM; IC50 ([2]; MTT): 10.9 ± 1.82 µM; IC50 [3]: 26.9 ± 2.58 µM; IC50 [4]: 36.4 ± 3.12 µM; IC50 [5]: > 100 µM; IC50 [6]: 22 ± 1.71 µM; MAR (malformation rate) (zebrafish embryos; 1 mg/mL): 85% ^c; MOR (mortality rate) (zebrafish embryos; 1 mg/mL): 15% ^c; MAR (malformation rate) (zebrafish embryos; 1.5 mg/mL): 60% ^c; MOR (mortality rate) (zebrafish embryos; 1.5 mg/mL): 40% ^c; MAR (malformation rate) (zebrafish embryos; 2 mg/mL): 55% ^c; MOR (mortality rate) (zebrafish embryos; 2 mg/mL): 45% ^c; total mortality and malformation rate (zebrafish embryos; zebrafish embryos, 2.0 mg.L^−1): 100%; area of blood vessels ([7]; zebrafish embryos, additional blood vessels were formed on the blood vessel edge): could reduce the area of blood vessels
COc1ccc2nc3ccccc3c(-n3c(-c4ccncc4)n[nH]c3=S)c2c1 [5a, 4-(2-methoxyacridin-9-yl)-5-(pyridin-4-yl)-2,4-dihydro-3H-1,2,4-triazole-3-thione]	74.5 ± 4.03	22.4 ± 1.32	22.1 ± 2.72	36.5 ± 2.96	21.2 ± 2.72	42 ± 2.31	272 to 273	
CC1=CC2C(=Nc3nnc(-c4ccc(Cl)cc4)s3)c3ccccc3NC2C=C1 (stereo not drawn) [6j, 7-methyl-N-(5-(4-chlorophenyl)-1,3,4-thiadiazol-2-yl)-10,10a-dihydroacridin-9(8aH)-imine]	56.2 ± 3.16	13 ± 1.89	48.5 ± 3.06	13.9 ± 1.83	15.5 ± 1.98	51.2 ± 3.09	258 to 260	
COc1ccc2nc3ccccc3c(-n3c(-c4ccccc4)n[nH]c3=S)c2c1 [5b, 4-(2-methoxyacridin-9-yl)-5-phenyl-2,4-dihydro-3H-1,2,4-triazole-3-thione]	53.6 ± 2.78	15.8 ± 1.94	27.7 ± 2.97	42.1 ± 3.74	22.1 ± 1.85	58.3 ± 3.25	259 to 261	
Cc1ccc2nc3ccccc3c(-n3c(-c4ccc([N+](=O)[O-])cc4)n[nH]c3=S)c2c1 [5i, 4-(2-methylacridin-9-yl)-5-(4-nitrophenyl)-2,4-dihydro-3H-1,2,4-triazole-3-thione]	70.9 ± 2.99	8.92 ± 0.99	31.7 ± 2.36	28.3 ± 1.32	14.3 ± 1.27	> 100	245 to 247	
COC1=CC2C(=Nc3nnc(-c4ccc([N+](=O)[O-])cc4)s3)c3ccccc3NC2C=C1 (stereo not drawn) [6d, 7-methoxy-N-(5-(4-nitrophenyl)-1,3,4-thiadiazol-2-yl)-10,10a-dihydroacridin-9(8aH)-imine]	> 100	26.7 ± 3.35	> 100	> 100	> 100	> 100	258 to 260	
COc1ccc(-n2c(-c3c4ccccc4nc4ccc(C)cc34)n[nH]c2=S)cc1 [5h, 4-(4-methoxyphenyl)-4-(2-methylacridin-9-yl)-2,4-dihydro-3H-1,2,4-triazole-3-thione]								IC50 [1]: 68.1 ± 2.64 µM; IC50 ([2]; MTT): 10.9 ± 0.97 µM; IC50 [3]: 40.3 ± 2.06 µM; IC50 [4]: 26.3 ± 2.51 µM; IC50 [5]: 11.2 ± 1.16 µM; IC50 [6]: 37.7 ± 2.47 µM; mortality rate of zebrafish embryos (zebrafish embryos): ~0%; malformation rate of zebrafish embryos (zebrafish embryos; 2.0 mg.L^−1): less than 15%; MAR (malformation rate) (zebrafish embryos; 1 mg/mL): 5% ^a; MOR (mortality rate) (zebrafish embryos; 1 mg/mL): 0%; MAR (malformation rate) (zebrafish embryos; 1.5 mg/mL): 10% ^a; MOR (mortality rate) (zebrafish embryos; 1.5 mg/mL): 0%; MAR (malformation rate) (zebrafish embryos; 2 mg/mL): 15% ^a; MOR (mortality rate) (zebrafish embryos; 2 mg/mL): 0%; reduction in the vessel length (SIVs) compared to the mean vessel length for the controls ([7]; 72 hpf zebrafish embryos): ~50%; area of the meshed pattern vessel and number of vascular branches in the network ([7]; zebrafish embryos, compared with blank control group): decreased
